Laboratory results published in US10407445B2, “Hepatitis C virus inhibitors” (ENANTA PHARMACEUTICALS, INC., priority 2013, dated 2019).
Read-outs that look alike come from different tables or passages of the source.

Tests used:
Format in all cases: cell-based
HCV GT 1a replicon = assay: HCV replicon assay, stable GT 1a replicon (Renilla luciferase); details: Hepatitis C virus, GT1A
Method: (§1) The activity of compounds was determined against HCV replicons representing genotypes (GT) 1a, 1b, 2a, and 3a. To generate stable Huh-7.5-based cell lines, HCV replicons were engineered to express the Renilla luciferase reporter (hRluc) fused to the neomycin phosphotransferase (Neo) gene. GT2a and GT3a HCV replicons were based on the JFH-1 subgenomic replicon (Kato et al. 2003 Gastroenterology, 125:1808-1817), in which the NS5A gene was replaced with that of strains J6 and S52 (GT2a and G3a, respectively). The activity of compounds against GT1a replicons encoding NS5A mutations (M28T, Q30R, L31M, Y93C, and Y93H) was also determined in a transient replication assay. The parental GT1a and GT2a replicons (pH/SG-Neo(L+I) and pSG-Neo-JFH1, respectively) were licensed from Apath LLC (Saint Louis, Mo.). The parental GT 1b replicon (pFKi389lucubineo_3_3′_ET) was licensed from ReBLikon GmbH (Germany). HCV replicons were constructed by standard molecular biology techniques described below. All replicon constructs were verified by restriction enzyme digestion and DNA sequencing.
pH/SG-Neo(L+I) was modified to add the firefly luciferase reporter gene and additional adaptive mutations by replacing the pH/SG-Neo(L+I) NS3-NS5A coding region with the corresponding sequence of pH77-S, creating pH/SG-lucubineo-H77S as described (Borawski J et al. 2009, J Virol 83: 10058-10074). Subsequently, the firefly luciferase-Neo cassette was replaced with the hRluc-Neo cassette. To create a unique cloning site, the NotI restriction site in NS5B was removed using QuickChange II XL Site-Directed Mutagenesis Kit (Agilent) and the following primers: NotI KO Fwd 5′-CTCAAACTCACTCCAATAGCTGCCGCTGGCCGGCTGGAC-3′(G→T mutation removing NotI site underlined) (SEQ. ID No. 1) and NotI KO Rev 5′-GTCCAGCGGGCCAGCGGCAGCTATTGGAGTGAGTTTGAG-3′(C→A mutation removing NotI site underlined) (SEQ. ID No. 2). The resulting vector, pH/SG-lucubineo-H775-NotIKO, was sequenced to confirm the NS5B gene. The hRluc-Neo cassette was PCR amplified from pF9 cytomegalovirus (CMV) hRluc-Neo Flexi(R) (Promega) using Accuprime Super Mix II (Invitrogen) and the following primers, which introduce restriction sites: […]
The amplification product was subcloned into pCR2.1-TOPO (Invitrogen). The resulting plasmid was digested with AscI and NotI, and the excised hRluc-Neo fragment was ligated using the Promega Rapid Ligation Kit (Promega) into pH/SG-lucubineo-H775-NotIKO digested with the same enzymes.
Stable HCV replicon cell lines were grown in complete media (Dulbecco's modified Eagle medium [DMEM], 2 mM L-glutamine, 0.1 mM essential amino acids, 1 mM sodium pyruvate, 10% heat inactivated fetal bovine serum) with the addition 500 μg/ml […] (G418). Huh7-lunet cells were maintained in the same medium without the addition of G418. Cells were routinely passaged at a dilution of 1:4 two times a week. The assay medium for both luciferase reporter HCV replicon and cytotoxicity assays used phenol red-free DMEM and lacked G418. For each stable replicon assay, a sixteen point half-log dilution series of compound was stamped (0.5 ul compound per well) into three replica 384-well plates, to which cells were added directly (4000 cells/well). For the transient replication assay, Huh7-lunet cells in ice-cold phosphate buffered saline (PBS) were electroporated (BioRad electroporator; 950 uF, 270V) with 10 ug purified in vitro transcribed HCV replicon RNA, followed by resuspension in complete media and plating (8000 cells/well) into compound stamped 384-well plates. Luciferase activity of compound-treated cells was measured relative to DMSO-treated cells after 72 h incubation using RENILLA-GLO™ Luciferase Assay (Promega). Cytotoxicity (CC50) in the GT1b replicon cell line was analyzed using CELL TITER-GLO™ (Promega). […]

HCV GT 2a-J6 replicon = assay: HCV replicon assay, GT2a chimeric replicon expressing NS5A from GT2a strain J6; details: Hepatitis C virus, read-out: EC50 (nM) 2a-J6
Method: as §1
(§2) The plasmid pSG-hRlucNeo-JFH1 was generated from pSG-Neo-JFH1 (Kato et al. 2003, Gastroentrology 125:1808-1817). A fragment containing the JFH-1 5′ NTR—hRluc-Neo gene and two unique restriction sites (AgeI and PmeI) was synthesized (Integrated DNA Technologies, Coralville, Iowa). The resulting synthetic plasmid was digested with AgeI and PmeI and the excised fragment (5′NTR-hRluc-Neo) was ligated into pSG-Neo-JFH1 digested with the same enzymes to generate pSG-hRlucNeo-JFH1. To allow expression of heterologous NS5A sequences, an NS5A shuttle vector was generated from pSG-Neo-JFH1, in which the entire coding sequence of NS5A plus the first eight codons of NS5B were replaced with an AfeI restriction site. This was done by Infusion cloning (Clontech, Mountain View, Calif.) from two PCR products that were generated using pSG-Neo-JFH1 as a template and the following primer pairs:
(§3) Underlined sequences denote regions of overlap necessary for Infusion cloning. Purified PCR products were cloned directly into an NsiI/SnaBI digested pSG-Neo-JFH1 following the manufacturer's instructions to generate pSG-Neo-JFH1-5Ashuttle. The 2023 base pair AgeI/PmeI fragment from pSG-hRlucNeo-JFH1 was then ligated into pSG-Neo-JFH1-5Ashuttle to generate pSG-hRlucNeo-JFH1-5Ashuttle. To generate the 2a-2a-(J6) and 2a-3a-(S52) NS5A chimeric replicons, the full length NS5A sequences from GT2a strain J6 (accession AF177036) and GT3a strain S52 (accession GU814263), with the addition of the first eight codons of JFH-1 NS5B (5′-TCCATGTCATACTCCTGGACCGGG-3′), were synthesized by GeneArt (Life Technologies, Carlsbad Calif.). J6 and S52 NS5A sequences were then PCR amplified from the synthetic clones using the appropriate forward primer:
(§4) Underlined sequences denote regions of overlap with pSG-hRlucNeo-JFH1-5Ashuttle necessary for Infusion cloning. Purified PCR products were directly cloned into AfeI-digested shuttle vector by Infusion cloning following the manufacturer's instructions.
(§5) Stable HCV replicon cell lines were grown in complete media (Dulbecco's modified Eagle medium [DMEM], 2 mM L-glutamine, 0.1 mM essential amino acids, 1 mM sodium pyruvate, 10% heat inactivated fetal bovine serum) with the addition 500 μg/ml […] (G418). Huh7-lunet cells were maintained in the same medium without the addition of G418. Cells were routinely passaged at a dilution of 1:4 two times a week. The assay medium for both luciferase reporter HCV replicon and cytotoxicity assays used phenol red-free DMEM and lacked G418. For each stable replicon assay, a sixteen point half-log dilution series of compound was stamped (0.5 ul compound per well) into three replica 384-well plates, to which cells were added directly (4000 cells/well). […]

HCV GT 3a replicon = assay: HCV replicon assay, GT2a chimeric replicon expressing NS5A from GT3a strain S52; details: Hepatitis C virus, read-out: EC50 (nM) 3a
Method: as §1, §2, §3, §4, §5

[1] = system: GT1a replicon encoding NS5A mutation M28T; assay: Transient replication assay, GT1a replicon with NS5A mutation M28T; details: Hepatitis C virus
[2] = system: GT1a replicon encoding NS5A mutation Q30R; assay: Transient replication assay, GT1a replicon with NS5A mutation Q30R; details: Hepatitis C virus
[3] = system: GT1a replicon encoding NS5A mutation L31V; assay: Transient replication assay, GT1a replicon with NS5A mutation L31V; details: Hepatitis C virus
[4] = system: GT1a replicon encoding NS5A mutation Y93C; assay: Transient replication assay, GT1a replicon with NS5A mutation Y93C; details: Hepatitis C virus
[5] = system: GT1a replicon encoding NS5A mutation Y93H; assay: Transient replication assay, GT1a replicon with NS5A mutation Y93H; details: Hepatitis C virus
[6] = comparative table, GT 1a, read-out: EC50 (nM) 1a
[7] = read-out: 1a EC50 (nM) 1a (H77S)

Row | SMILES | EC50 (HCV GT 1a replicon; [6]) [nM] | EC50 (HCV GT 2a-J6 replicon) [nM] | EC50 (HCV GT 3a replicon) [nM] | EC50 ([1]; read-out: EC50 (nM) 1a M28T) [nM] | EC50 ([2]; read-out: EC50 (nM) 1a Q30R) [nM] | EC50 ([3]; read-out: EC50 (nM) 1a L31V) [nM] | EC50 ([4]; read-out: EC50 (nM) 1a Y93C) [nM] | EC50 ([5]; read-out: EC50 (nM) 1a Y93H) [nM] | EC50 (HCV GT 1a replicon; [7]) [nM] | EC50 ([1]; read-out: 1a EC50 (nM) M28T) [nM] | EC50 ([2]; read-out: 1a EC50 (nM) Q30R) [nM] | EC50 ([3]; read-out: 1a EC50 (nM) L31V) [nM] | EC50 ([4]; read-out: 1a EC50 (nM) Y93C) [nM] | EC50 ([5]; read-out: 1a EC50 (nM) Y93H) [nM]
1 | COC(=O)N[C@H](C(=O)N1C[C@]2(CCCCO2)C[C@H]1c1ncc(-c2ccc(-c3ccc4c(ccc5nc([C@@H]6CCCN6C(=O)[C@@H](NC(=O)OC)C(C)C)[nH]c54)c3)cc2)[nH]1)C(C)C | 0.01 | 27 | 1 | 0.01 | 0.03 | 0.3 | 0.2 | 9 | – | – | – | – | – | –
2 | COC(=O)N[C@H](C(=O)N1C[C@@]2(CCCCO2)C[C@H]1c1ncc(-c2ccc(-c3ccc4c(ccc5nc([C@@H]6CCCN6C(=O)[C@@H](NC(=O)OC)C(C)C)[nH]c54)c3)cc2)[nH]1)C(C)C | 0.15 | 267 | 156 | 6 | 5 | 44 | 0.7 | 6 | – | – | – | – | – | –
3 | COC(=O)N[C@H](C(=O)N1C[C@]2(CCCO2)C[C@H]1c1ncc(-c2ccc(-c3ccc4c(ccc5nc([C@@H]6CCCN6C(=O)[C@@H](NC(=O)OC)C(C)C)[nH]c54)c3)cc2)[nH]1)C(C)C [drawing 228] | – | – | – | – | – | – | – | – | 0.02 | 0.3 | 0.05 | 0.4 | 0.2 | 15
4 | COC(=O)N[C@H](C(=O)N1C[C@]2(CCOC2)C[C@H]1c1ncc(-c2ccc(-c3ccc4c(ccc5nc([C@@H]6CCCN6C(=O)[C@@H](NC(=O)OC)C(C)C)[nH]c54)c3)cc2)[nH]1)C(C)C [drawing 229] | – | – | – | – | – | – | – | – | 0.02 | 3 | 0.8 | 11 | 0.8 | 42
5 | COC(=O)N[C@H](C(=O)N1C[C@@]2(CCOC2)C[C@H]1c1ncc(-c2ccc(-c3ccc4c(ccc5nc([C@@H]6CCCN6C(=O)[C@@H](NC(=O)OC)C(C)C)[nH]c54)c3)cc2)[nH]1)C(C)C [drawing 230] | – | – | – | – | – | – | – | – | 0.01 | 0.5 | 0.4 | 1 | 0.4 | 7
6 | COC(=O)N[C@H](C(=O)N1C[C@@]2(CCCO2)C[C@H]1c1ncc(-c2ccc(-c3ccc4c(ccc5nc([C@@H]6CCCN6C(=O)[C@@H](NC(=O)OC)C(C)C)[nH]c54)c3)cc2)[nH]1)C(C)C [drawing 231] | – | – | – | – | – | – | – | – | 0.06 | 14 | 3 | 46 | 0.2 | 5
7 | COC(=O)N[C@H](C(=O)N1CC2(CCOCC2)C[C@H]1c1ncc(-c2ccc(-c3ccc4c(ccc5nc([C@@H]6CCCN6C(=O)[C@@H](NC(=O)OC)C(C)C)[nH]c54)c3)cc2)[nH]1)C(C)C [drawing 234] | 0.03 | 32 | 0.7 | 0.9 | 1 | 6 | 1 | 26 | – | – | – | – | – | –
8 | COC(=O)N[C@H](C(=O)N1C[C@@]2(CCCOC2)C[C@H]1c1ncc(-c2ccc(-c3ccc4c(ccc5nc([C@@H]6CCCN6C(=O)[C@@H](NC(=O)OC)C(C)C)[nH]c54)c3)cc2)[nH]1)C(C)C [drawing 235] | 0.01 | 50 | 297 | 0.03 | 0.06 | 0.1 | 0.02 | 1 | – | – | – | – | – | –
